Measurements as given in ChEMBL document CHEMBL1201862, “PubChem BioAssay data set” (2004).
Values joined by “and” are separate entries in the source; they are usually repeats but may differ in a detail not shown here. Equal entries are not always repeated.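 In this assay, cells in 96-well plates receive the compound at five concentrations for 48 hours. Endpoints are linearly interpolated between the surrounding concentrations. At the GI50, growth is halved.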 Active and inactive are the calls of the source. Rule as the data show it: active = GI50 up to about 1.1 µM and inactive = higher.

Assays:
Assay in all cases: NCI tumour cell line growth inhibition, 48 h
[1] = system: Hs-578T
[2] = system: A498
[3] = system: K562
[4] = system: U-251
[5] = system: HT-29
[6] = system: UACC-257
[7] = system: OVCAR-8
[8] = system: HL-60
[9] = system: NCI-H460
[10] = system: RXF 393
[11] = system: SN12C
[12] = system: T47D
[13] = system: ACHN
[14] = system: MCF7
[15] = system: IGROV-1
[16] = system: PC-3
[17] = system: SNB-75
[18] = system: LOX IMVI
[19] = system: NCI-H522
[20] = system: SK-MEL-28
[21] = system: MOLT-4
[22] = system: A549
[23] = system: HCT-116
[24] = system: MDA-MB-435
[25] = system: HOP-62
[26] = system: BT-549
[27] = system: DU-145
[28] = system: NCI-H23
[29] = system: UO-31
[30] = system: HCT-15
[31] = system: EKVX
[32] = system: COLO 205
[33] = system: MDA-N
[34] = system: OVCAR-4
[35] = system: CCRF-CEM
[36] = system: RPMI-8226
[37] = system: M14
[38] = system: SR
[39] = system: KM12
[40] = system: Malme-3M
[41] = system: CAKI-1
[42] = system: SW-620
[43] = system: MDA-MB-231
[44] = system: SF-295
[45] = system: OVCAR-5
[46] = system: TK-10
[47] = system: OVCAR-3
[48] = system: SF-539
[49] = system: HCC 2998
[50] = system: SK-MEL-5
[51] = system: SNB-19
[52] = system: HOP-92
[53] = system: SK-MEL-2
[54] = system: NCI-H226
[55] = system: 786-0
[56] = system: UACC-62
[57] = system: SK-OV-3
[58] = system: NCI/ADR-RES
[59] = system: SF-268

Measured: GI50

CC(=O)O[C@H]1CC2C(C3CC[C@H](C(C)CCC(=O)O)[C@]31C)[C@H](OC(C)=O)C[C@@H]1CC3(CC[C@]21C)OOC1(CCC(C)CC1)OO3 (some centres not stated)
2.37 µM and 2.96 µM: [30]
inactive: [1] 3.4 µM and 1.76 µM | [2] 15 µM and 13 µM | [3] 3.13 µM and 3.9 µM | [4] 1.76 µM and 3.35 µM | [5] 2.11 µM and 1.81 µM | [6] 6.92 µM and 11.7 µM | [7] 1.98 µM and 2.85 µM | [8] 2.97 µM and 2.37 µM | [9] 2.33 µM and 3.53 µM | [10] 7.82 µM and 12.9 µM | [11] 2.72 µM and 4.18 µM | [12] 3.07 µM and 2.31 µM | [13] 2.59 µM and 4.31 µM | [14] 2.96 µM and 4.86 µM | [15] 2.01 µM | [16] 5.15 µM and 3.17 µM | [17] 1.6 µM | [18] 2.15 µM and 3.27 µM | [19] 2.98 µM and 1.61 µM | [20] 2.06 µM and 1.66 µM | [21] 2.2 µM and 1.51 µM | [22] 1.55 µM and 2.82 µM | [23] 2.16 µM and 4.11 µM | [24] 2.62 µM and 4.74 µM | [25] 3.16 µM | [26] 3.69 µM and 2.74 µM | [27] 3.32 µM and 4.98 µM | [28] 2.28 µM and 4.31 µM | [29] 2.61 µM | [31] 2.08 µM | [32] 2.53 µM | [33] 3.77 µM and 5.71 µM | [34] 2.56 µM and 2.32 µM | [35] 1.67 µM and 2.03 µM | [36] 1.91 µM and 2.05 µM | [37] 3.49 µM and 6.67 µM | [38] 1.55 µM

c1ccc(C2(c3cc4ccccc4[nH]3)OCCO2)nc1
inactive: [39] > 100 µM | [40] > 100 µM | [1] > 100 µM | [2] > 100 µM | [41] > 100 µM | [42] > 100 µM | [4] > 100 µM | [5] > 100 µM | [43] > 100 µM | [6] > 100 µM | [44] > 100 µM | [7] > 100 µM | [8] > 100 µM | [45] > 100 µM | [9] > 100 µM | [10] > 100 µM | [12] > 100 µM | [13] > 100 µM | [46] > 100 µM | [14] > 100 µM | [15] > 100 µM | [16] > 100 µM | [17] > 100 µM | [18] > 100 µM | [47] > 100 µM | [48] > 100 µM | [49] > 100 µM | [50] > 100 µM | [20] > 100 µM | [51] > 100 µM | [52] > 100 µM | [22] > 100 µM | [23] > 100 µM | [53] > 100 µM | [24] > 100 µM | [25] > 100 µM | [54] > 100 µM | [26] > 100 µM | [27] > 100 µM | [55] > 100 µM | [56] > 100 µM | [28] > 100 µM | [29] > 100 µM | [57] > 100 µM | [31] > 100 µM | [32] > 100 µM | [58] > 100 µM | [59] > 100 µM | [34] > 100 µM | [35] > 100 µM | [37] > 100 µM
> 100 µM: [30]

CC(=O)OC1COC(N2c3ccccc3[C@@H]3CCc4c([nH]c5ccccc45)[C@@H]32)C(OC(C)=O)C1OC(C)=O.CC(=O)OC1COC(N2c3ccccc3[C@H]3CCc4c([nH]c5ccccc45)[C@H]32)C(OC(C)=O)C1OC(C)=O (some centres not stated)
47 µM: [30]
inactive: [39] 12.1 µM | [40] > 100 µM | [1] 21.4 µM | [2] 17.7 µM | [41] 27.7 µM | [42] > 100 µM | [4] 80.7 µM | [5] 62.2 µM | [43] 14 µM | [6] 72.1 µM | [44] 21.6 µM | [45] > 100 µM | [9] 40.6 µM | [11] 59.3 µM | [46] > 100 µM | [15] 2.76 µM | [16] 16.2 µM | [17] 11.4 µM | [47] 26.1 µM | [49] 40.1 µM | [19] 12.8 µM | [50] 29.3 µM | [20] > 100 µM | [51] > 100 µM | [21] 5.79 µM | [52] 57.7 µM | [22] 16.7 µM | [23] 14.3 µM | [53] 44.1 µM | [24] 51.8 µM | [25] > 100 µM | [26] 56.9 µM | [27] > 100 µM | [56] 60.5 µM | [28] 57.8 µM | [29] 9.79 µM | [57] 44.9 µM | [31] 19 µM | [32] 19.2 µM | [33] 65.3 µM | [59] 30.9 µM | [34] 71.8 µM | [35] 26.5 µM | [36] 12 µM | [37] 42.6 µM | [38] 11.6 µM
